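Following 48 hours of exposure in 96-well plates, responses at five concentrations were used to interpolate endpoints linearly. GI50 marks 50% less growth.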 Active and inactive are the calls of the source. Cut-off read from the data, not from the text of the source: active = GI50 up to about 1.1 µM and inactive = higher.
Tests used:
Experiment in all cases: DTP human tumour cell line panel, 48 h
U-251 = test system: U-251
NCI-H23 = test system: NCI-H23
PC-3 = test system: PC-3
SK-MEL-2 = test system: SK-MEL-2
NCI-H226 = test system: NCI-H226
HCT-15 = test system: HCT-15
HL-60 = test system: HL-60
ACHN = test system: ACHN
UACC-62 = test system: UACC-62
EKVX = test system: EKVX
HOP-92 = test system: HOP-92
RPMI-8226 = test system: RPMI-8226
SF-295 = test system: SF-295
RXF 393 = test system: RXF 393
MDA-MB-435 = test system: MDA-MB-435
SN12C = test system: SN12C
HT-29 = test system: HT-29
NCI-H460 = test system: NCI-H460
KM12 = test system: KM12
SK-OV-3 = test system: SK-OV-3

SMILES	GI50 (U-251)	GI50 (NCI-H23)	GI50 (PC-3)	GI50 (SK-MEL-2)	GI50 (NCI-H226)	GI50 (HCT-15)	GI50 (HL-60)	GI50 (ACHN)	GI50 (UACC-62)	GI50 (EKVX)	GI50 (HOP-92)	GI50 (RPMI-8226)	GI50 (SF-295)	GI50 (RXF 393)	GI50 (MDA-MB-435)	GI50 (SN12C)	GI50 (HT-29)	GI50 (NCI-H460)	GI50 (KM12)	GI50 (SK-OV-3)
Cc1cc2ncn(CC(=O)O)c2cc1C	> 100 µM (inactive)	> 100 µM (inactive)	> 100 µM (inactive)	> 100 µM (inactive)	> 100 µM (inactive)	> 100 µM	> 100 µM (inactive)	> 100 µM (inactive)	> 100 µM (inactive)	> 100 µM (inactive)	> 100 µM (inactive)	> 100 µM (inactive)	> 100 µM (inactive)	> 100 µM (inactive)	> 100 µM (inactive)	> 100 µM (inactive)	> 100 µM (inactive)	> 100 µM (inactive)	> 100 µM (inactive)	> 100 µM (inactive)
COc1cc(C(c2c(O)c3ccccc3oc2=O)c2c(O)c3ccccc3oc2=O)ccc1O	22.9 µM (inactive)	39 µM (inactive)	33.7 µM (inactive)	25.2 µM (inactive)	50.4 µM (inactive)	17.4 µM	24.7 µM (inactive)	22.6 µM (inactive)	18.5 µM (inactive)	27.9 µM (inactive)	14.6 µM (inactive)	34.6 µM (inactive)	35.1 µM (inactive)	18 µM (inactive)	33 µM (inactive)	19.1 µM (inactive)	21.1 µM (inactive)	20.9 µM (inactive)	32.7 µM (inactive)	> 100 µM (inactive)
Cc1cccc2c1CC1(C2)Cc2c(C)cccc2C1=O (stereo not drawn)	23.8 µM (inactive)	31.4 µM (inactive)	31.7 µM (inactive)	16.9 µM (inactive)	26.8 µM (inactive)	29 µM	26.7 µM (inactive)	24.9 µM (inactive)		16 µM (inactive)	16.6 µM (inactive)	14.8 µM (inactive)	27.9 µM (inactive)	15.6 µM (inactive)	24.8 µM (inactive)	23.2 µM (inactive)	29.9 µM (inactive)	22.7 µM (inactive)	25.2 µM (inactive)	29.8 µM (inactive)
COC(=O)[C@H](Cc1c[nH]c2ccccc12)NP(=O)(O)OC[C@H]1O[C@@H](n2cc(C)c(=O)[nH]c2=O)C[C@@H]1N=[N+]=[N-]	> 100 µM (inactive)	> 100 µM (inactive)	> 100 µM (inactive)	> 100 µM (inactive)	> 100 µM (inactive)	> 100 µM	> 100 µM (inactive)		> 100 µM (inactive)	> 100 µM (inactive)	> 100 µM (inactive)	> 100 µM (inactive)	> 100 µM (inactive)	> 100 µM (inactive)	> 100 µM (inactive)	> 100 µM (inactive)	> 100 µM (inactive)	> 100 µM (inactive)	> 100 µM (inactive)	> 100 µM (inactive)
